Read-outs that look alike come from different tables or passages of the source. Non-standard residues stand in square brackets, D forms with d. Residues, ends and D or L forms follow the SMILES beside them. *: point of attachment. Hyp = O=C(O)[C@@H]1C[C@@H](O)CN1; Nle = CCCC[C@H](N)C(=O)O; NH(CH2)3NH2 = NCCCN*; Bn = c1ccc(C*)cc1
Experiments:
hMC3-R = molecular target: T1, hMC3-R (Homo sapiens, UniProt P41968); assay: Competitive inhibition binding assay, 125I-NDP-α-MSH, hMC3-R; conditions: 1 μM test compound, 0.4 nM 125I-NDP-α-MSH, hMC3-R membranes, mean of triplicates, results less than 0% reported as 0%; for inhibition at 1 µM: read-out: Inhibition at 1 μM MC3-R
T1 construct: expressed in transfected cells
T1 sequence (P41968 whole entry): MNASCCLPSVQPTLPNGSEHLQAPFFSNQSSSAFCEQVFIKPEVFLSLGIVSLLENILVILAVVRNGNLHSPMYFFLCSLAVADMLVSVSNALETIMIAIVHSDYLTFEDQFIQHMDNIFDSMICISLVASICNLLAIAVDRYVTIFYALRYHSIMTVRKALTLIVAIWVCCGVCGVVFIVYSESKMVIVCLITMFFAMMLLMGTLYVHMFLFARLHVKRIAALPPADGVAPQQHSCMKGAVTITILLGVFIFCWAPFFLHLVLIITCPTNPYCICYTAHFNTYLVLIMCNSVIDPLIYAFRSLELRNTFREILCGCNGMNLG
Protocol: (§1) A competitive inhibition binding assay was conducted using membranes prepared from hMC3-R, hMC4-R, hMC5-R, and B-16 mouse melanoma cells (containing MC1-R) using 0.4 nM ^125I-NDP-α-MSH (New England Nuclear, Boston, Mass., USA) in 50 mM HEPES buffer containing 1 mM MgCl2, 2 mM CaCl2, and 5 mM KCl, at pH 7.2. The assay tube also contained a chosen concentration of the test compound of this invention, typically a 1 μM concentration, for determining its efficacy in inhibiting the binding of ^125I-NDP-α-MSH to its receptor.
(§2) Incubation was for 90 minutes at room temperature, after which the assay mixture was filtered and the membranes washed three times with ice cold buffer. The filter was dried and counted in a gamma counter for remaining radioactivity bound to the membranes. 100% specific binding was defined as the difference in radioactivity (cpm) bound to cell membranes in the absence and presence of 1 μM α-MSH. […] Each assay was conducted in triplicate and the actual mean values are described.

hMC5-R = molecular target: T2, hMC5-R (Homo sapiens, UniProt P33032); assay: Competitive inhibition binding assay, 125I-NDP-α-MSH, hMC5-R; conditions: 1 μM test compound, 0.4 nM 125I-NDP-α-MSH, hMC5-R membranes, mean of triplicates, results less than 0% reported as 0%; for inhibition at 1 µM: read-out: Inhibition at 1 μM MC5-R
T2 construct: expressed in transfected cells
T2 sequence (P33032 whole entry): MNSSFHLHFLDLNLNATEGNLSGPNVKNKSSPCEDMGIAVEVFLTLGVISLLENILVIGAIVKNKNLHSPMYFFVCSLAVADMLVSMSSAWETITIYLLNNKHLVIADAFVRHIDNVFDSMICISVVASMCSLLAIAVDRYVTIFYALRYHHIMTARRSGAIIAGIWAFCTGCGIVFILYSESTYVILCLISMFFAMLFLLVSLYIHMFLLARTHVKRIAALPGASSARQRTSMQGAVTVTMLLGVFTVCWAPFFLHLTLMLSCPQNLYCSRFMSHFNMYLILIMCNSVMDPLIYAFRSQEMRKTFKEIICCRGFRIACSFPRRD
Protocol: as §1, §2

hMC4-R = molecular target: T3, hMC4-R (Homo sapiens, UniProt P32245); assay: Competitive inhibition binding assay, 125I-NDP-α-MSH, hMC4-R; conditions: 1 μM test compound, 0.4 nM 125I-NDP-α-MSH, hMC4-R membranes, mean of triplicates, results less than 0% reported as 0%; for inhibition at 1 µM: read-out: Inhibition at 1 μM MC4-R
T3 construct: expressed in transfected cells
T3 sequence (P32245 whole entry): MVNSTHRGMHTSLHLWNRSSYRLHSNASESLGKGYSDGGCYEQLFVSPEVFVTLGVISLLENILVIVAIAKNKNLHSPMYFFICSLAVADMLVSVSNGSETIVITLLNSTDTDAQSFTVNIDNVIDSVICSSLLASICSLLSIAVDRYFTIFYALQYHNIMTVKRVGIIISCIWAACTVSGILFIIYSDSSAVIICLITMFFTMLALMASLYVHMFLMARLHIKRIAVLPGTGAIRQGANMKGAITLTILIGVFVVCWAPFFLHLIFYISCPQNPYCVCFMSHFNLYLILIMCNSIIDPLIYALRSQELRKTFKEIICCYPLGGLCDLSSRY
Protocol: as §1, §2

[1] = molecular target: T4, MC1-R (B-16 mouse melanoma cells) (Mus musculus, UniProt Q01727); assay: Competitive inhibition binding assay, 125I-NDP-α-MSH, MC1-R; conditions: 1 μM test compound; 0.4 nM 125I-NDP-α-MSH; B-16 mouse melanoma cell membranes; mean of triplicates; results less than 0% reported as 0%
T4 construct: membranes prepared from hMC3-R, hMC4-R, hMC5-R, and B-16 mouse melanoma cells (containing MC1-R); endogenous in cells; host or cells: B-16 mouse melanoma cells (membranes)
T4 sequence (Q01727 whole entry): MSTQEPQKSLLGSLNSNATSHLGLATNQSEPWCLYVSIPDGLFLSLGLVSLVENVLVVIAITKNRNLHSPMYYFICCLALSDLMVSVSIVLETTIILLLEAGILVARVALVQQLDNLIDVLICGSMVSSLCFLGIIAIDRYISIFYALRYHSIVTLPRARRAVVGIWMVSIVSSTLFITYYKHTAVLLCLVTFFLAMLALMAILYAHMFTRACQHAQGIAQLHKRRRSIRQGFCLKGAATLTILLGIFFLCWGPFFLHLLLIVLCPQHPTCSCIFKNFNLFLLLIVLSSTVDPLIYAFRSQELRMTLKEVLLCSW
Protocol: as §1, §2

[2] = molecular target: T5, MC5-R (HEK-293 cells expressing MC5-R) (Homo sapiens, UniProt P33032); assay: Ki determination by the method of Example 3, MC5-R; assay type: cell-based
T5 construct: expressed in transfected cells; host or cells: HEK-293
T5 sequence (P33032 whole entry): as the sequence (P33032 whole entry) above

[3] = molecular target: T4, MC1-R (B-16 mouse melanoma cells); assay: Ki determination by the method of Example 3, MC1-R; assay type: cell-based
[4] = molecular target: T6, MC4-R (HEK-293 cells expressing MC4-R) (Homo sapiens, UniProt P32245); assay: Ki determination by the method of Example 3, MC4-R; assay type: cell-based; conditions: bound in μM
T6 construct: expressed in transfected cells; host or cells: HEK-293
T6 sequence (P32245 whole entry): as the sequence (P32245 whole entry) above

[5] = molecular target: T7, MC3-R (HEK-293 cells expressing MC3-R) (Homo sapiens, UniProt P41968); assay: Ki determination by the method of Example 3, MC3-R; assay type: cell-based; conditions: bound in μM
T7 construct: expressed in transfected cells; host or cells: HEK-293
T7 sequence (P41968 whole entry): as the sequence (P41968 whole entry) above

SMILES | inhibition at 1 µM (hMC3-R) | inhibition at 1 µM (hMC5-R) | inhibition at 1 µM (hMC4-R) | inhibition at 1 µM [1] | other results
[2H]N[C@@H](Cc1ccccc1)C(=O)N1C2CC[C@H](COc3ccccc3)N2C(=O)[C@@H]1CCCCN (stereo partly drawn) [Example 36] | – | – | – | – | Inhibition at 1 μM MC3-R (hMC3-R): 41%; Inhibition at 1 μM MC5-R (hMC5-R): 0%; Inhibition at 1 μM MC4-R (hMC4-R): 8%; Inhibition at 1 μM MC1-R [1]: 0%
[2H]N1CCC[C@@H]1C(=O)N[C@@H](Cc1ccccc1)C(=O)N1C[C@H](OCc2ccccc2)C[C@H]1C(=O)NCCCN [Example 44] | 0% | 0% | 11% | 13% | –
NCCCNC(=O)[C@@H]1C[C@@H](OCc2ccccc2)CN1C(=O)[C@@H](Cc1ccc(Cl)cc1)NC(=O)[C@@H]1Cc2ccccc2CN1 [Example 21] | 6% | 48% | 29% | 40% | Ki ([2]; value in nM, read-out: Ki (nM) MC5-R): 1150 nM
[2H]N[C@@H](Cc1cnc[nH]1)C(=O)N[C@@H](Cc1ccccc1)C(=O)N1C[C@H](OCc2ccccc2)C[C@H]1C(=O)NCCCN [Example 12] | 0% | 2% | 0% | 48% | –
CCCCCCC(=O)N[C@@H](Cc1cnc[nH]1)C(=O)N[C@H](Cc1ccccc1)C(=O)N1C[C@H](OCc2ccccc2)C[C@H]1C(=O)NCCCNC(=N)N [Example 30, Heptanoyl-His-D-Phe-Hyp(Bzl)-NH(CH2)3—NH—C(═NH)—NH2] | – | – | – | – | Inhibition at 1 μM MC3-R (hMC3-R): 7%; Inhibition at 1 μM MC5-R (hMC5-R): 1%; Inhibition at 1 μM MC4-R (hMC4-R): 1%; Inhibition at 1 μM MC1-R [1]: 92%
CCCC[C@H](N)C(=O)N[C@@H](C)C(=O)N[C@@H](Cc1cnc[nH]1)C(=O)N[C@H](Cc1ccccc1)C(=O)N1C[C@H](OCc2ccccc2)C[C@H]1C(=O)NCCCN [Example 10] (H-[Nle]AH[dF][Hyp](Bn)-{NH(CH2)3NH2}) | 6% | 7% | 2% | 83% | Ki [3]: 70 nM
NCCCNC(=O)[C@@H]1C[C@@H](OCc2ccccc2)CN1C(=O)[C@@H](Cc1ccccc1)NC(=O)[C@H]1Cc2ccccc2CN1 [Example 24] | 0% | 0% | 5% | 17% | –
[2H]N[C@@H](Cc1ccccc1)C(=O)N1C2CC[C@H](COc3ccc4ccccc4c3)N2C(=O)[C@@H]1CCCCN (stereo partly drawn) [Example 38] | – | – | – | – | Inhibition at 1 μM MC3-R (hMC3-R): 0%; Inhibition at 1 μM MC5-R (hMC5-R): 1%; Inhibition at 1 μM MC4-R (hMC4-R): 13%; Inhibition at 1 μM MC1-R [1]: 0%
[2H]N[C@@H](Cc1cnc[nH]1)C(=O)N[C@@H](Cc1ccccc1)C(=O)N1C[C@H](OCc2ccccc2)C[C@H]1C(N)=O [Example 28, His-D-Phe-Hyp(Bzl)-NH2] | 0% | 5% | 0% | 0% | –
[2H]N[C@@H](Cc1cnc[nH]1)C(=O)N[C@@H](Cc1ccccc1)C(=O)N1C2CC[C@H](COc3ccc4ccccc4c3)N2C(=O)[C@@H]1CCCCN (stereo partly drawn) [Example 42] | – | – | – | – | Inhibition at 1 μM MC3-R (hMC3-R): 0%; Inhibition at 1 μM MC5-R (hMC5-R): 0%; Inhibition at 1 μM MC4-R (hMC4-R): 10%; Inhibition at 1 μM MC1-R [1]: 18%
C[C@@H]1CN(C(=O)[C@H](N)Cc2ccc(Cl)cc2)[C@@H](CCCNC(=N)N)CN1CCc1ccc2ccccc2c1 [Example 15] | – | – | – | – | Inhibition at 1 μM MC3-R (hMC3-R): 46%; Inhibition at 1 μM MC5-R (hMC5-R): 34%; Inhibition at 1 μM MC4-R (hMC4-R): 43%; Inhibition at 1 μM MC1-R [1]: 85%
[2H]N[C@@H](Cc1cnc[nH]1)C(=O)N[C@@H](Cc1ccccc1)C(=O)N1C[C@H](OCc2ccccc2)C[C@H]1C(=O)NCCCCCN [Example 26] | 0% | 7% | 1% | 42% | –
[2H]N[C@@H](Cc1cnc[nH]1)C(=O)N[C@@H](Cc1ccccc1)C(=O)N1C[C@H](OCc2ccccc2)C[C@H]1C(=O)NCCCNC(=N)N [Example 29] | 0% | 4% | 6% | 0% | –
NCCCNC(=O)[C@@H]1C[C@@H](OCc2ccccc2)CN1C(=O)[C@@H](Cc1ccc(Cl)cc1)NC(=O)[C@H]1Cc2ccccc2CN1 [Example 22] | 10% | 38% | 27% | 29% | –
[2H]N[C@@H](Cc1cnc[nH]1)C(=O)N[C@@H](Cc1ccccc1)C(=O)N1C[C@H](OCc2ccccc2)C[C@H]1C(=O)NCCCCCCN [Example 27] | 0% | 8% | 2% | 36% | –
CCCC[C@H](NC(C)=O)C(=O)N[C@@H](C)C(=O)N[C@@H](Cc1cnc[nH]1)C(=O)N[C@H](Cc1ccccc1)C(=O)N1C[C@H](OCc2ccccc2)C[C@H]1C(=O)NCCCN [Example 9, Ac-Nle-Ala-His-D-Phe-Hyp(Bzl)-NH(CH2)3—NH2] (Ac-[Nle]AH[dF][Hyp](Bn)-{NH(CH2)3NH2}) | 13% | 25% | 8% | 91% | Ki [4]: > 1 µM; Ki ([2]; bound in μM, read-out: Ki MC5-R): > 1000 nM; Ki ([3]; MC1-R, values in nM, read-out: Ki (nM) MC1-R): 10 nM; Ki [5]: > 1 µM
[2H]N[C@@H](Cc1cnc[nH]1)C(=O)N[C@@H](Cc1ccccc1)C(=O)N1C[C@H](OCc2ccccc2)C[C@H]1C(=O)NCCCCN [Example 25] | 12% | 7% | 2% | 50% | –
NCCCNC(=O)[C@@H]1C[C@@H](OCc2ccccc2)CN1C(=O)[C@@H](Cc1ccccc1)NC(=O)[C@@H]1Cc2ccccc2CN1 [Example 23] | 0% | 14% | 6% | 34% | –
